Measured values published in ChEMBL document CHEMBL1201862, “PubChem BioAssay data set” (2004).
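Results reflect a 48-hour exposure of cells in 96-well plates to compound at five concentrations. Abbreviation: GI50, concentration required for 50% inhibition of growth.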 Activity calls are given as the source filed them. No stated cut-off is given here; in the data, active = GI50 up to about 1.1 µM and inactive = higher.

Tests used:
Assay in all cases: NCI anticancer screen, dose series, 48 h
UO-31 = tested on: UO-31
SN12C = tested on: SN12C
K562 = tested on: K562
PC-3 = tested on: PC-3
MOLT-4 = tested on: MOLT-4
CCRF-CEM = tested on: CCRF-CEM
HT-29 = tested on: HT-29
NCI/ADR-RES = tested on: NCI/ADR-RES
IGROV-1 = tested on: IGROV-1
OVCAR-5 = tested on: OVCAR-5
NCI-H23 = tested on: NCI-H23
COLO 205 = tested on: COLO 205
EKVX = tested on: EKVX
UACC-257 = tested on: UACC-257
Malme-3M = tested on: Malme-3M
MCF7 = tested on: MCF7
UACC-62 = tested on: UACC-62
RPMI-8226 = tested on: RPMI-8226
A498 = tested on: A498

| Structure (SMILES) | GI50 (UO-31) | GI50 (SN12C) | GI50 (K562) | GI50 (PC-3) | GI50 (MOLT-4) | GI50 (CCRF-CEM) | GI50 (HT-29) | GI50 (NCI/ADR-RES) | GI50 (IGROV-1) | GI50 (OVCAR-5) | GI50 (NCI-H23) | GI50 (COLO 205) | GI50 (EKVX) | GI50 (UACC-257) | GI50 (Malme-3M) | GI50 (MCF7) | GI50 (UACC-62) | GI50 (RPMI-8226) | GI50 (A498) |
| --- | --- | --- | --- | --- | --- | --- | --- | --- | --- | --- | --- | --- | --- | --- | --- | --- | --- | --- | --- |
| CCC(C)C(C(=O)N/N=C1/SCC(=O)N1c1ccccc1)C(=O)N/N=C1/SCC(=O)N1c1ccccc1 (stereo unspecified) | > 100 µM (inactive) | > 100 µM (inactive) | > 100 µM (inactive) | > 100 µM (inactive) | 36 µM (inactive) | 46.1 µM (inactive) | > 100 µM (inactive) | > 100 µM (inactive) | > 100 µM (inactive) | > 100 µM (inactive) | 36.6 µM (inactive) | > 100 µM (inactive) | > 100 µM (inactive) | > 100 µM (inactive) | 21.2 µM (inactive) | 34.1 µM (inactive) | 20 µM (inactive) | – | – |
| O=C(c1ccccc1)C1C(C(=O)c2ccccc2)N1Cc1ccccc1 (stereo unspecified) | 36.8 µM (inactive) | 21.4 µM (inactive) | 27.9 µM (inactive) | 23.4 µM (inactive) | 40.6 µM (inactive) | 36.6 µM (inactive) | 36.5 µM (inactive) | 33.5 µM (inactive) | 49.8 µM (inactive) | > 100 µM (inactive) | 37.8 µM (inactive) | 24.3 µM (inactive) | 28.3 µM (inactive) | 38.6 µM (inactive) | 34.4 µM (inactive) | – | 15.7 µM (inactive) | 48.9 µM (inactive) | 33 µM (inactive) |
| CC1=NN(C(=O)c2ccncc2)C(=O)C1 | > 100 µM (inactive) | 29.2 µM (inactive) | > 100 µM (inactive) | > 100 µM (inactive) | 89.9 µM (inactive) | > 100 µM (inactive) | > 100 µM (inactive) | > 100 µM (inactive) | > 100 µM (inactive) | > 100 µM (inactive) | > 100 µM (inactive) | > 100 µM (inactive) | > 100 µM (inactive) | > 100 µM (inactive) | > 100 µM (inactive) | > 100 µM (inactive) | > 100 µM (inactive) | – | > 100 µM (inactive) |
| OC1(c2ccccc2)c2ccccc2N=C2NCCN21 (stereo unspecified) | 59.2 µM (inactive) | 82.8 µM (inactive) | – | 52.2 µM (inactive) | 0.424 µM (active) | – | 74.6 µM (inactive) | > 100 µM (inactive) | > 100 µM (inactive) | > 100 µM (inactive) | 60 µM (inactive) | 32.9 µM (inactive) | > 100 µM (inactive) | 31.1 µM (inactive) | – | 63.1 µM (inactive) | 51.4 µM (inactive) | 11.1 µM (inactive) | 86.5 µM (inactive) |
| CCOC(=O)C(C)(C)Oc1ccc(Cl)cc1 [CLOFIBRATE] | 726 µM (inactive) | 320 µM (inactive) | > 1000 µM (inactive) | 359 µM (inactive) | 161 µM (inactive) | 596 µM (inactive) | 159 µM (inactive) | 285 µM (inactive) | 461 µM (inactive) | 446 µM (inactive) | 303 µM (inactive) | 202 µM (inactive) | 201 µM (inactive) | 177 µM (inactive) | 215 µM (inactive) | 325 µM (inactive) | 514 µM (inactive) | – | 297 µM (inactive) |
| CCN(CC)C1Oc2cc3c(cc2C(c2cccc(OC)c2OC)C1C)OCO3 (stereo unspecified) | 4.21 µM (inactive) | 5.4 µM (inactive) | 3.05 µM (inactive) | 4.03 µM (inactive) | 4.01 µM (inactive) | 2.17 µM (inactive) | 3.65 µM (inactive) | – | 4.58 µM (inactive) | 13 µM (inactive) | 8.47 µM (inactive) | 3.85 µM (inactive) | 13.1 µM (inactive) | 3.95 µM (inactive) | 8.51 µM (inactive) | 5.08 µM (inactive) | 11.4 µM (inactive) | 1.48 µM (inactive) | 5.81 µM (inactive) |
| CSc1nc(-c2cc3c(c(SC)n2)CCC3)cc2c1CCC2 | > 100 µM (inactive) | > 100 µM (inactive) | > 100 µM (inactive) | > 100 µM (inactive) | > 100 µM (inactive) | > 100 µM (inactive) | > 100 µM (inactive) | > 100 µM (inactive) | – | > 100 µM (inactive) | > 100 µM (inactive) | > 100 µM (inactive) | > 100 µM (inactive) | > 100 µM (inactive) | – | – | > 100 µM (inactive) | > 100 µM (inactive) | > 100 µM (inactive) |
| c1ccc(C2SCc3nc4cc5ccccc5cc4n32)cc1 (stereo unspecified) | > 100 µM (inactive) | > 100 µM (inactive) | > 100 µM (inactive) | > 100 µM (inactive) | > 100 µM (inactive) | > 100 µM (inactive) | > 100 µM (inactive) | > 100 µM (inactive) | > 100 µM (inactive) | > 100 µM (inactive) | > 100 µM (inactive) | > 100 µM (inactive) | > 100 µM (inactive) | > 100 µM (inactive) | > 100 µM (inactive) | > 100 µM (inactive) | > 100 µM (inactive) | > 100 µM (inactive) | – |
| COC1C=CC23c4cc5c(cc4C(O)OC2CN(C)C3C1)OCO5 (stereo unspecified) | 2.69 µM (inactive) | 2.35 µM (inactive) | 1.77 µM (inactive) | – | 1.34 µM (inactive) | 1.84 µM (inactive) | – | – | 4.72 µM (inactive) | 3.34 µM (inactive) | 2.94 µM (inactive) | 1.08 µM (active) | 3.55 µM (inactive) | 1.77 µM (inactive) | 1.9 µM (inactive) | – | 4.13 µM (inactive) | 2.56 µM (inactive) | 3.1 µM (inactive) |
| c1ccc(-c2nn(-c3ccccc3)[n+](-c3ccccc3)n2)cc1 [TETRAZOLIUM RED] | > 100 µM (inactive) | 9.59 µM (inactive) | 18.6 µM (inactive) | 3.83 µM (inactive) | 19.1 µM (inactive) | 0.718 µM (active) | 18.6 µM (inactive) | > 100 µM (inactive) | 3.1 µM (inactive) | 35.7 µM (inactive) | 7.29 µM (inactive) | – | 2.4 µM (inactive) | 2.85 µM (inactive) | 0.394 µM (active) | 2.88 µM (inactive) | 13.8 µM (inactive) | – | > 74.6 µM (inactive) |
| O=C(O)c1ccc(-c2nc3cc(Cl)ccc3[nH]2)cc1 | > 100 µM (inactive) | > 100 µM (inactive) | > 100 µM (inactive) | > 100 µM (inactive) | > 100 µM (inactive) | > 100 µM (inactive) | > 100 µM (inactive) | > 100 µM (inactive) | > 100 µM (inactive) | – | – | > 100 µM (inactive) | > 100 µM (inactive) | – | – | > 100 µM (inactive) | – | > 100 µM (inactive) | – |
| CC(C)(C)OC(=O)CC(NC(=O)OC(C)(C)C)C(=O)N[C@@H]1CCCC[C@H]1C(=O)OCc1ccccc1 (stereo partly specified) | 24.2 µM (inactive) | 18.2 µM (inactive) | 18.4 µM (inactive) | 21.4 µM (inactive) | 17 µM (inactive) | 20.8 µM (inactive) | 17.2 µM (inactive) | 33.3 µM (inactive) | 37 µM (inactive) | 26.2 µM (inactive) | 29.3 µM (inactive) | 19.3 µM (inactive) | 62.2 µM (inactive) | 30.2 µM (inactive) | 33.7 µM (inactive) | 26.9 µM (inactive) | 16.2 µM (inactive) | 20.5 µM (inactive) | – |
| COc1cccc(/N=N/N2CCCC2)c1 | > 100 µM (inactive) | > 100 µM (inactive) | > 100 µM (inactive) | 27.2 µM (inactive) | > 100 µM (inactive) | > 100 µM (inactive) | – | > 100 µM (inactive) | > 100 µM (inactive) | > 100 µM (inactive) | > 100 µM (inactive) | > 100 µM (inactive) | > 100 µM (inactive) | > 100 µM (inactive) | – | > 100 µM (inactive) | 39.5 µM (inactive) | 53.7 µM (inactive) | > 100 µM (inactive) |
| COc1ccc2c(c1)C1=NCCN(C)c3ccc([N+](=O)[O-])c(c31)N2 | 0.555 µM (active) | 0.796 µM (active) | 12.2 µM (inactive) | 0.583 µM (active) | 0.705 µM (active) | 5.73 µM (inactive) | 0.573 µM (active) | 0.665 µM (active) | 1.41 µM (inactive) | 2.19 µM (inactive) | 0.891 µM (active) | 0.533 µM (active) | 1.56 µM (inactive) | 2.54 µM (inactive) | 1.04 µM (active) | 1.15 µM (inactive) | 1.1 µM (active) | – | 1.61 µM (inactive) |
| CCOP(=O)(OCC)OC1CC(n2cnc3c(N(CC)CC)ncnc32)OC1CO[Si](C)(C)C(C)(C)C (stereo unspecified) | 19.1 µM (inactive) | 19.4 µM (inactive) | 17.8 µM (inactive) | 12.2 µM (inactive) | 11.2 µM (inactive) | 14.4 µM (inactive) | 16.6 µM (inactive) | 20.8 µM (inactive) | 16.9 µM (inactive) | 19 µM (inactive) | 17 µM (inactive) | 18.5 µM (inactive) | 5.86 µM (inactive) | 16.5 µM (inactive) | 22.4 µM (inactive) | 21.8 µM (inactive) | 14.8 µM (inactive) | 28 µM (inactive) | – |
| CCNC(=S)Nc1c(C#N)c2n(c1C(=O)OCC)CCCCC2 | > 100 µM (inactive) | – | > 100 µM (inactive) | > 100 µM (inactive) | > 100 µM (inactive) | > 100 µM (inactive) | > 100 µM (inactive) | > 100 µM (inactive) | > 100 µM (inactive) | – | 69 µM (inactive) | > 100 µM (inactive) | > 100 µM (inactive) | > 100 µM (inactive) | – | > 100 µM (inactive) | > 100 µM (inactive) | 71.3 µM (inactive) | > 100 µM (inactive) |
